ChEMBL document CHEMBL1201862, “PubChem BioAssay data set” (2004)
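Exposure lasted 48 hours, with cells grown in 96-well plates and compounds tested at five concentrations. GI50 is the concentration that inhibits growth by half.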 Active and inactive are the calls of the source. Rule as the data show it: active = GI50 up to about 1.1 µM and inactive = higher.

Experiments:
Test in all cases: NCI anticancer screen, dose series, 48 h
[1] = system: NCI-H226
[2] = system: NCI-H460
[3] = system: HOP-62
[4] = system: EKVX
[5] = system: HOP-92
[6] = system: SF-268
[7] = system: OVCAR-5
[8] = system: A498
[9] = system: RXF 393
[10] = system: HL-60
[11] = system: CAKI-1
[12] = system: HCT-116
[13] = system: SNB-75
[14] = system: RPMI-8226
[15] = system: A549
[16] = system: SK-MEL-5
[17] = system: IGROV-1
[18] = system: SK-OV-3

In the case of `Cc1ccc2c(CC(=O)O)cc(=O)oc2c1`, the GI50 [1] is reported as > 100 µM (inactive), the GI50 [2] is reported as > 100 µM (inactive) and the GI50 [3] is reported as > 100 µM (inactive). The GI50 [4] was > 100 µM (inactive), the GI50 [5] was > 100 µM (inactive) and the GI50 [6] was > 100 µM (inactive). The GI50 [7] was > 100 µM (inactive), the GI50 [8] was > 100 µM (inactive) and the GI50 [9] was 3.72 µM (inactive). For the same compound, the GI50 [10] was > 100 µM (inactive), the GI50 [11] was > 100 µM (inactive) and the GI50 [12] was > 100 µM (inactive). The GI50 [13] was 44.9 µM (inactive), the GI50 [14] was > 100 µM (inactive) and the GI50 [15] was > 100 µM (inactive). The GI50 [16] was > 100 µM (inactive), the GI50 [17] was > 100 µM (inactive) and the GI50 [18] was > 100 µM (inactive).

In the case of `CCN(CC)/[N+]([O-])=N/OCC(C)O` (configuration not stated), the GI50 [1] is reported as > 100 µM (inactive), the GI50 [2] is reported as > 100 µM (inactive) and the GI50 [3] is reported as > 100 µM (inactive). For the same compound, the GI50 [4] was > 100 µM (inactive), the GI50 [5] was > 100 µM (inactive) and the GI50 [6] was > 100 µM (inactive). The GI50 [7] was > 100 µM (inactive), the GI50 [8] was > 100 µM (inactive) and the GI50 [9] was > 100 µM (inactive). For the same compound, the GI50 [10] was > 100 µM (inactive), the GI50 [11] was > 100 µM (inactive) and the GI50 [12] was > 100 µM (inactive). For the same compound, the GI50 [13] was > 100 µM (inactive), the GI50 [15] was > 100 µM (inactive) and the GI50 [16] was > 100 µM (inactive). The GI50 [17] was > 100 µM (inactive) and the GI50 [18] was > 100 µM (inactive).

In the case of `CCN(CC)c1ccc2c(c1)Oc1ccc(N(CC)CC)cc1C21Oc2ccccc2-c2c1c1ccccc1n2CC` (configuration not stated), the GI50 [1] is reported as 7.74 µM (inactive), the GI50 [4] is reported as 6.47 µM (inactive) and the GI50 [5] is reported as 0.302 µM (active). For the same compound, the GI50 [6] was 2.38 µM (inactive), the GI50 [8] was 8.34 µM (inactive) and the GI50 [9] was 1.81 µM (inactive). The GI50 [10] was 1.25 µM (inactive), the GI50 [11] was 5.15 µM (inactive) and the GI50 [12] was 1.05 µM (active). For the same compound, the GI50 [13] was > 100 µM (inactive), the GI50 [14] was 0.592 µM (active) and the GI50 [15] was 3.18 µM (inactive). The GI50 [16] was 1.56 µM (inactive) and the GI50 [18] was 4.07 µM (inactive).

For `C=CC/N=C1/N=C(CC(=O)OCC)CS1`, the GI50 [1] was > 100 µM (inactive), the GI50 [2] was > 100 µM (inactive) and the GI50 [3] was > 100 µM (inactive). For the same compound, the GI50 [4] was > 100 µM (inactive), the GI50 [5] was > 100 µM (inactive) and the GI50 [6] was > 100 µM (inactive). For the same compound, the GI50 [7] was > 100 µM (inactive), the GI50 [8] was > 100 µM (inactive) and the GI50 [9] was > 100 µM (inactive). The GI50 [10] was > 100 µM (inactive), the GI50 [11] was > 100 µM (inactive) and the GI50 [12] was > 100 µM (inactive). The GI50 [13] was > 100 µM (inactive), the GI50 [15] was > 100 µM (inactive) and the GI50 [16] was > 100 µM (inactive). The GI50 [17] was > 100 µM (inactive) and the GI50 [18] was > 100 µM (inactive).

In the case of `COC1OC(CO)C(O)C1N` (configuration not stated), the GI50 [1] is reported as > 100 µM (inactive), the GI50 [2] is reported as > 100 µM (inactive) and the GI50 [3] is reported as > 100 µM (inactive). For the same compound, the GI50 [4] was > 100 µM (inactive), the GI50 [5] was > 100 µM (inactive) and the GI50 [6] was > 100 µM (inactive). For the same compound, the GI50 [7] was > 100 µM (inactive), the GI50 [8] was > 100 µM (inactive) and the GI50 [9] was > 100 µM (inactive). The GI50 [10] was > 100 µM (inactive), the GI50 [11] was > 100 µM (inactive) and the GI50 [12] was > 100 µM (inactive). For the same compound, the GI50 [13] was > 100 µM (inactive), the GI50 [15] was > 100 µM (inactive) and the GI50 [16] was > 100 µM (inactive). For the same compound, the GI50 [17] was > 100 µM (inactive) and the GI50 [18] was > 100 µM (inactive).

In the case of `COc1cc2c(c(OC)c1OC)-c1ccc(SC)c(=O)cc1C(CC(=O)Oc1cccc([N+](=O)[O-])c1)C2` (configuration not stated), the GI50 [1] is reported as 0.764 µM (active), the GI50 [2] is reported as 0.45 µM (active) and the GI50 [4] is reported as 3.38 µM (inactive). The GI50 [5] was 3.09 µM (inactive), the GI50 [6] was 1.02 µM (active) and the GI50 [8] was 0.0277 µM (active). The GI50 [9] was 0.139 µM (active), the GI50 [10] was 0.255 µM (active) and the GI50 [11] was 0.685 µM (active). For the same compound, the GI50 [12] was 0.384 µM (active), the GI50 [13] was 0.268 µM (active) and the GI50 [14] was 0.647 µM (active). The GI50 [15] was 1.16 µM (inactive), the GI50 [16] was 0.592 µM (active) and the GI50 [17] was 3.44 µM (inactive). For the same compound, the GI50 [18] was 0.0736 µM (active).

For `COc1ccc(/C=C/c2cc(OC)c(OC)c(OC)c2)cc1`, the GI50 [1] was 5.61 µM (inactive), the GI50 [2] was 3.9 µM (inactive) and the GI50 [3] was 3.48 µM (inactive). The GI50 [4] was 24.2 µM (inactive), the GI50 [5] was 90.8 µM (inactive) and the GI50 [6] was 15.1 µM (inactive). The GI50 [7] was 1.85 µM (inactive), the GI50 [8] was 3.4 µM (inactive) and the GI50 [9] was 1.48 µM (inactive). For the same compound, the GI50 [10] was 2.75 µM (inactive), the GI50 [11] was 3.53 µM (inactive) and the GI50 [12] was 2.86 µM (inactive). The GI50 [13] was 3.43 µM (inactive), the GI50 [14] was 1.09 µM (active) and the GI50 [15] was 7.55 µM (inactive). For the same compound, the GI50 [16] was 3.68 µM (inactive), the GI50 [17] was 11 µM (inactive) and the GI50 [18] was 8.59 µM (inactive).
